# Biological target: T1, recombinant His-tagged cytoplasmic domains of TRKA receptor (NTRK1, PV3144, aa 441-796) (Homo sapiens, UniProt P04629)
# T1 construct: aa 441-796; His; purchased Invitrogen PV3144
# Experiment: Isolated TRK enzyme assay (HTRF KinEASE-TK, PV3144 TrkA enzyme assay)
# Type: biochemical
# Details: 4 nM enzyme, 40 uM ATP, 35 min, arithmetic mean where more than one reading
# In short: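 Enzyme and ATP were preincubated with compound for 20 min at room temperature in buffer with 10 mM MgCl and 2 mM DTT. TK-substrate-Biotin was then added (1 uM final) and the reaction run for an enzyme-specific optimized time. Phosphorylation was read by HTRF, and IC50 values came from sigmoid fits of percent inhibition normalized to plate controls, averaged over replicate readings.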
# T1 sequence (P04629 441-796): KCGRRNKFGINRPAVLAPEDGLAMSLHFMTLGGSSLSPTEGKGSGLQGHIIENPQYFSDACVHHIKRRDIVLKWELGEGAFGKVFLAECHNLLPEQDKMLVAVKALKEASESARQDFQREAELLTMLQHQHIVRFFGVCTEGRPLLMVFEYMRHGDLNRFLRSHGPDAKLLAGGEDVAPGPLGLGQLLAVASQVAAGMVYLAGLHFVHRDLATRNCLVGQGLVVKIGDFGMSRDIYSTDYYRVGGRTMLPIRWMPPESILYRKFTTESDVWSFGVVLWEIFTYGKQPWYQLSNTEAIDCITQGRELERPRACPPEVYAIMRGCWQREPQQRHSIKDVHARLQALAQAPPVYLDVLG
row,SMILES,IC50 [nM]
1,"Cn1cc(-c2ccc(OC3CCN(C(=O)Cc4ccc(OC(F)(F)F)cn4)CC3)c(C(N)=O)c2)cn1 [Example 10, 5-(1-methyl-1H-pyrazol-4-yl)-2-[(1-{[5-(trifluoromethoxy)pyridin-2-yl]acetyl}piperidin-4-yl)oxy]benzamide]",9.9
2,"CS(=O)(=O)Cn1cc(-c2cc(C(N)=O)c(O[C@@H]3CCN(C(=O)Cc4ccc(OC5CC5)cc4)C[C@@H]3F)cn2)cn1 [Example 35, 5-{[(3S,4R)-1-{[4-(cyclopropyloxy)phenyl]acetyl}-3-fluoropiperidin-4-yl]oxy}-2-{1-[(methylsulfonyl)methyl]-1H-pyrazol-4-yl}pyridine-4-carboxamide]",7.7
3,CC(C)(O)Cn1cc(-c2ccc(O[C@H]3CCN(C(=O)Cc4ccc(OC5CC5)cn4)C[C@H]3F)c(C(N)=O)c2)cn1 (racemic) [Example 45],1.8
4,"CS(=O)(=O)Cn1cc(-c2cnc(OC3CCN(C(=O)Cc4ccc(OC(F)(F)F)c(F)c4)CC3)c(C(N)=O)c2)cn1 [Example 21, 2-[(1-{[3-fluoro-4-(trifluoromethoxy)phenyl]acetyl}piperidin-4-yl)oxy]-5-{1-[(methylsulfonyl)methyl]-1H-pyrazol-4-yl}pyridine-3-carboxamide]",11
5,"Cn1cc(-c2ccc(OC3CCN(C(=O)Cc4ccc(OC5CC5)cc4)CC3)c(C(N)=O)c2)cn1 [Example 178, 2-[(1-{[4-(cyclopropyloxy)phenyl]acetyl}piperidin-4-yl)oxy]-5-(1-methyl-1H-pyrazol-4-yl)benzamide]",8.57
6,"CC(C)(O)Cn1cc(-c2ccc(O[C@H]3CCN(C(=O)Cc4ccc(OC5CC5)cn4)C[C@@H]3F)c(C(N)=O)c2)cn1 [Example 34, 2-{[(3S,4S)-1-{[5-(cyclopropyloxy)pyridin-2-yl]acetyl}-3-fluoropiperidin-4-yl]oxy}-5-[1-(2-hydroxy-2-methylpropyl)-1H-pyrazol-4-yl]benzamide]",7.7
7,"Cn1cnc(-c2cnc(O[C@H]3CCN(C(=O)Cc4ccc(OC5CC5)cc4)C[C@@H]3F)c(C(N)=O)c2)c1 [Example 27, 2-{[(3S,4S)-1-{[4-(cyclopropyloxy)phenyl]acetyl}-3-fluoropiperidin-4-yl]oxy}-5-(1-methyl-1H-imidazol-4-yl)pyridine-3-carboxamide]",2.1
8,"Cn1cnc(-c2ccc(OC3CCN(C(=O)Cc4ccc(OC(F)(F)F)cc4)C4CC34)c(C(N)=O)c2)c1 (stereo not shown) [Example 159, 5-(1-methyl-1H-imidazol-4-yl)-2-[(2-{[4-(trifluoromethoxy)phenyl]acetyl}-2-azabicyclo[4.1.0]hept-5-yl)oxy]benzamide]",17.8
9,"CC1CN(C(=O)Cc2ccc(OC(F)(F)F)cc2)CCC1Oc1ccc(-c2cn(C)cn2)cc1C(N)=O (racemic) [Example 50, Racemic 2-((3-methyl-1-(2-(4-(trifluoromethoxy)phenyl)acetyl)piperidin-4-yl)oxy)-5-(1-methyl-1H-imidazol-4-yl)benzamide]",3.6
10,"Cn1cnc(-c2ccc(O[C@@H]3CCN(C(=O)Cc4ccc(OC(F)(F)F)cc4)C[C@@H]3F)c(C(N)=O)c2)c1 (racemic) [Example 52, 1:1 racemic mixture of 2-(((3S,4R)-3-fluoro-1-(2-(4-(trifluoromethoxy)phenyl)acetyl)piperidin-4-yl)oxy)-5-(1-methyl-1H-imidazol-4-yl)benzamide + (3R,4S) enantiomer]",4.5
11,"NC(=O)c1cc(-c2cnn(CCO)c2)ccc1OC1CCN(C(=O)Cc2ccc(OC3CC3)cc2)CC1 [Example 130, 2-[(1-{[4-(cyclopropyloxy)phenyl]acetyl}piperidin-4-yl)oxy]-5-[1-(2-hydroxyethyl)-1H-pyrazol-4-yl]benzamide]",5.5
12,Cn1cnc(-c2ccc(O[C@@H]3CCN(C(=O)Cc4ccc(OC5CC5)cc4)C[C@H]3F)c(C(N)=O)c2)c1 (racemic) [Example 44],3.8
13,Cc1nc(-c2ccc(O[C@@H]3CCN(C(=O)Cc4ccc(OC(F)(F)F)cc4)C[C@@H]3F)c(C(N)=O)c2)c[nH]1 [Example 121],1.5

# Continued by falling IC50, values first:
row,IC50 [nM],SMILES
1,17.6,"Cc1cc(OC2CCN(C(=O)Cc3ccc(OC(F)(F)F)cc3)CC2)c(C(N)=O)cc1-c1cn(C)cn1 [Example 170, 4-methyl-5-(1-methyl-1H-imidazol-4-yl)-2-[(1-{[4-(trifluoromethoxy)phenyl]acetyl}piperidin-4-yl)oxy]benzamide]"
2,16.6,"CC(C)(O)Cn1cc(-c2cnc(O[C@H]3CCN(C(=O)Cc4ccc(OC5CC5)cn4)C[C@@H]3F)c(C(N)=O)c2)cn1 [Example 163, 2-{[(3S,4S)-1-{[5-(cyclopropyloxy)pyridin-2-yl]acetyl}-3-fluoropiperidin-4-yl]oxy}-5-[1-(2-hydroxy-2-methylpropyl)-1H-pyrazol-4-yl]pyridine-3-carboxamide]"
3,15.1,"Cn1cc(-c2cnc(OC3CCN(C(=O)Cc4ccc(OC(F)(F)F)cc4)CC3)c(C(N)=O)c2)cn1 [Example 182, 5-(1-methyl-1H-pyrazol-4-yl)-2-[(1-{[4-(trifluoromethoxy)phenyl]acetyl}piperidin-4-yl)oxy]pyridine-3-carboxamide]"
4,11.4,"Cn1cc(-c2ccc(OC3CCN(C(=O)Cc4ccc(OC5CC5)cn4)CC3)c(C(N)=O)c2)cn1 [Example 173, 2-[(1-{[5-(cyclopropyloxy)pyridin-2-yl]acetyl}piperidin-4-yl)oxy]-5-(1-methyl-1H-pyrazol-4-yl)benzamide]"
5,10.8,"NC(=O)c1cc(-c2c[nH]c(C3(F)COC3)n2)ccc1OC1CCN(C(=O)Cc2ccc(OC(F)(F)F)cc2)CC1 [Example 117, 5-[2-(3-fluorooxetan-3-yl)-1H-imidazol-4-yl]-2-[(1-{[4-(trifluoromethoxy)phenyl]acetyl}piperidin-4-yl)oxy]benzamide]"
6,9.4,"NC(=O)c1cc(-c2cscn2)ccc1OC1CCN(C(=O)Cc2ccc(OC(F)(F)F)cc2)CC1 [Example 101, 5-(1,3-thiazol-4-yl)-2-[(1-{[4-(trifluoromethoxy)phenyl]acetyl}piperidin-4-yl)oxy]benzamide]"
7,6.9,"NC(=O)c1cc(-c2cnn(CC3(O)COC3)c2)ccc1OC1CCN(C(=O)Cc2ccc(OC(F)(F)F)cc2)CC1 [Example 129, 5-{1-[(3-hydroxyoxetan-3-yl)methyl]-1H-pyrazol-4-yl}-2-[(1-{[4-(trifluoromethoxy)phenyl]acetyl}piperidin-4-yl)oxy]benzamide]"
8,6.1,"CNC(=O)Cn1cnc(-c2ccc(OC3CCN(C(=O)Cc4ccc(OC(F)(F)F)cc4)CC3)c(C(N)=O)c2)c1 [Example 128, 5-{1-[2-(methylamino)-2-oxoethyl]-1H-imidazol-4-yl}-2-[(1-{[4-(trifluoromethoxy)phenyl]acetyl}piperidin-4-yl)oxy]benzamide]"
9,5.9,"NC(=O)c1cc(-c2ccc(C(=O)O)cc2)cnc1OC1CCN(C(=O)Cc2ccc(OC(F)(F)F)cc2)CC1 [Example 95, 4-{5-carbamoyl-6-[(1-{[4-(trifluoromethoxy)phenyl]acetyl}piperidin-4-yl)oxy]pyridin-3-yl}benzoic acid]"
10,4.8,"CS(=O)(=O)Cn1cc(-c2cnc(O[C@H]3CCN(C(=O)Cc4ccc(OC5CC5)cc4)C[C@@H]3F)c(C(N)=O)c2)cn1 [Example 30, 2-{[(3S,4S)-1-{[4-(cyclopropyloxy)phenyl]acetyl}-3-fluoropiperidin-4-yl]oxy}-5-{1-[(methylsulfonyl)methyl]-1H-pyrazol-4-yl}pyridine-3-carboxamide]"
11,3.8,Cc1nn(C[C@@H](O)CO)c(C)c1-c1ccc(OC2CCN(C(=O)Cc3ccc(OC(F)(F)F)cc3)CC2)c(C(N)=O)c1 [Example 123]
12,3.7,"CS(=O)(=O)Cn1cc(-c2cnc(O[C@H]3CCN(C(=O)Cc4ccc(OC(F)(F)F)cc4)C[C@@H]3F)c(C(N)=O)c2)cn1 [Example 25, 2-{[(3S,4S)-3-fluoro-1-{[4-(trifluoromethoxy)phenyl]acetyl}piperidin-4-yl]oxy}-5-{1-[(methylsulfonyl)methyl]-1H-pyrazol-4-yl}pyridine-3-carboxamide]"
13,2.9,"CS(=O)(=O)Cn1cc(-c2cnc(O[C@@H]3CCN(C(=O)Cc4ccc(OC(F)(F)F)c(F)c4)C[C@@H]3F)c(C(N)=O)c2)cn1 [Example 24, 2-{[(3S,4R)-3-fluoro-1-{[3-fluoro-4-(trifluoromethoxy)phenyl]acetyl}pipertdin-4-yl]oxy}-5-{1-[(methylsulfonyl)methyl]-1H-pyrazol-4-yl}pyridine-3-carboxamide]"
14,2.5,C[C@H](O)Cn1cc(-c2ccc(OC3CCN(C(=O)Cc4ccc(OC(F)(F)F)cc4)CC3)c(C(N)=O)c2)cn1 [Example 134]
15,2.4,"NC(=O)c1cc(-c2cnn(C3CCS(=O)(=O)C3)c2)ccc1OC1CCN(C(=O)Cc2ccc(OC(F)(F)F)cc2)CC1 (racemic) [Example 14, Racemic 5-[1-(1,1-dioxidotetrahydrothiophen-3-yl)-1H-pyrazol-4-yl]-2-[(1-{[4-(trifluoromethoxy)phenyl]acetyl}piperidin-4-yl)oxy]benzamide]"
16,1.6,"Cc1nc(-c2ccc(O[C@H]3CCN(C(=O)Cc4ccc(OC(F)(F)F)cc4)C[C@H]3F)c(C(N)=O)c2)c[nH]1 [Example 77, 2-{[(3R,4S)-3-fluoro-1-{[4-(trifluoromethoxy)phenyl]acetyl}pipertdin-4-yl]oxy}-5-(2-methyl-1H-imidazol-4-yl)benzamide]"
17,1.5,"NC(=O)c1cc(-c2cn[nH]c2)ncc1O[C@H]1CCN(C(=O)Cc2ccc(OC(F)(F)F)cc2)C[C@H]1F [Example 88, 5-{[(3R,4S)-3-fluoro-1-{[4-(trifluoromethoxy)phenyl]acetyl}piperidin-4-yl]oxy}-2-(1H-pyrazol-4-yl)pyridine-4-carboxamide]"
18,1.4,"NC(=O)c1cc(-c2cn[nH]c2)ccc1O[C@@H]1CCN(C(=O)Cc2ccc(OC3CC3)cn2)C[C@@H]1F [Example 83, 2-{[(3S,4R)-1-{[5-(cyclopropyloxy)pyridin-2-yl]acetyl}-3-fluoropiperidin-4-yl]oxy}-5-(1H-pyrazol-4-yl)benzamide]"
